# Measurements as given in PMC8217170, “Phase Ib dose-escalation study of the hypoxia-modifier Myo-inositol trispyrophosphate in patients with hepatopancreatobiliary tumors” (Nature Communications, 2021).
# Experiment: Phase Ib dose escalation: safety and tolerability (CTCAE v4.03), MTD
# Assay type: in vivo, human
# Design: key to Hypercalcemia, CTCAE-Grade / Hypophosphatemia, CTCAE-Grade / Cholestasis, CTCAE-Grade / Nausea, CTCAE-Grade / Hypertension, CTCAE-Grade / Upper respiratory tract infection, CTCAE-Grade / Hyponatremia, CTCAE-Grade / Hypomagnesemia, CTCAE-Grade / Ascites & death due to rapid progression of malignancy, CTCAE-Grade / Hypokalemia, CTCAE-Grade / Pyrexia, CTCAE-Grade / Hyperphosphatemia, CTCAE-Grade / AV Block 1°, CTCAE-Grade / Palpations, CTCAE-Grade: 1 is the mildest form of the specific symptom; 5 is death
# Settings: for Hypercalcemia, CTCAE-Grade: relationship to IMP: Definitively
# Description: This first-in-patient investigator-initiated phase Ib dose-escalation study followed a 3 + 3 dose-escalation scheme with a planned maximal inclusion of 48 participants allocated to eight cohorts of increasing doses. Outcomes were safety, tolerability, pharmacokinetics, and preliminary efficacy of ITPP with participants in this exploratory, prospective, open-label and unblinded, unrandomized, single-center investigation being enrolled at the University Hospital Zurich (USZ), Switzerland. Written informed consent was obtained of all participants before study inclusion after a time of consideration of at least 24 h. Written consent included the reporting and publication of individual, anonymized patient data. The study adhered to the principles of the Declaration of Helsinki, current good clinical practice guidelines and all ethical regulations. The study protocol was approved by the responsible independent ethics committee of Zurich (KEK-ZH-Nr. 2014-0374) and the national regulatory authority Swissmedic (2015DR1009) and is provided in the Supplementary Note 1. The study setup was published before inclusion start[55] and the trial first registered at ClinicalTrials.gov (NCT02528526) on 11/11/2014. After 6 sequential reviews requiring minor editorial changes, final registration at ClinicalTrials.gov was obtained on the 08/18/2015. The first patient was included in the study 04/13/2015, with treatment started on the 04/27/2015. 4 patients were included in the trial before final registration at ClinicalTrials.gov (04/13/2015–07/20/2015). The last patient was included on the 06/12/2018, treatment started on the 06/18/2018 and the last treatment administered on 07/06/2018. Data cut-off for the study was the 12/31/2018. The manuscript was written in compliance with ICMJE guidelines.
# Primary objectives were (i) assessment of the safety and tolerability of increasing doses of ITPP, and (ii) establishment of the MTD (primary endpoint) according to the dose escalation schema. The primary outcome was measured by collection of adverse effects information according to Common Terminology Criteria for Adverse Events (CTCAE, US National Cancer Institute, version 4.03). Safety objectives and outcomes were identical with the primary endpoint.
# The study drug (brand name: OXY111A) was intravenously administered in 9 infusions, each lasting 8 h, over 3 weeks in an outpatient setting at the Phase 1 unit of the USZ Clinical Trials Center. Due to its anionic properties, ITPP acts a potent chelator of calcium. Therefore, administration with CaCl2 (Baxter) at a 1:0.75 molar ratio has been determined to prevent hypocalcaemia. Respective doses were calculated based on body surface area (DuBois/DuBois formula). Cohort 1 started at weekly doses of 5600 mg/m^2 weekly, equal to the maximal weekly dose tested in healthy volunteers (unpublished data from Normoxys®). Dose escalation was performed according to the predefined scheme (Fig. 1a, Supplementary Note 1: page 6) up to a maximum weekly dose of 43,700 mg/m^2. During infusion days, participants had continuous monitoring of vital signs and daily 12-electrode electrocardiograms. Electrolytes measurements and venous blood gas analyses were performed three-hourly, while complete blood count, coagulation and routine kidney/liver parameters were assessed twice daily.
# Severity of encountered AE was assessed following the CTCAE guidelines. Serious AE were defined as events being life-threatening, necessitating hospitalization, resulting in death or birth defects. DLT was defined as any AE ≥ grade 3 and sTET as any grade 2 AE considered to be definitely, probably or possibly related to ITPP. […] MTD was defined as the dose preceding the level at which 1 patient experienced a DLT or ≥3 patients experienced a sTET (Supplementary Note 1: page 6). The window for DLT/sTET/MTD assessment was from first dose of ITPP until first dose of chemotherapy or 10d following the last ITPP infusion. […]
# [1] = cohort 1, SAE, relationship to IMP: Unrelated
smiles,measurement,setting,value
"O=P1(O)OC2C3OP(=O)(O)OP(=O)(O)OC3C3OP(=O)(O)OP(=O)(O)OC3C2OP(=O)(O)O1 (centres unmarked) [ITPP, Myo-inositol trispyrophosphate]","Number of treatment-related toxicities (TET, at least possibly related to ITPP)","28 patients, all cohorts",32
same,"Hypomagnesemia, patients",all CTCAE grade I,5/28
same,"Hypophosphatemia, patients",all CTCAE grade I,4/28
same,"Hypercalcemia of free ionized calcium, share of patients",all cohorts,67.9 % of patients
same,"Hypercalcemia, share of ITPP-related AE",all cohorts,59.4%
same,"Hypomagnesemia/-phosphatemia, share of ITPP-related AE",all cohorts,28.1%
same,Number of AE unlikely to be ITPP-induced,all cohorts,24
same,Number of serious adverse events (SAE),all cohorts,7
same,Share of AE at least possibly related to ITPP,all cohorts,57%
same,"AV Block 1° (AE, not ITPP-related)","all cohorts, n = 28, total (%)",Total: 1 (3.6%)
same,"Acute kidney injury grade 3 (AE, not ITPP-related)","all cohorts, n = 28, total (%)",Total: 1 (3.6%)
same,"Ascites due to oncological progress (AE, not ITPP-related)","all cohorts, n = 28, total (%)",Total: 3 (10.7%)
same,"C. difficile enteritis (AE, not ITPP-related)","all cohorts, n = 28, total (%)",Total: 1 (3.6%)
same,"Cholestasis (AE, not ITPP-related)","all cohorts, n = 28, total (%)",Total: 1 (3.6%)
same,"Fatigue (AE, not ITPP-related)","all cohorts, n = 28, total (%)",Total: 1 (3.6%)
same,Hypercalcemia (TET),"all cohorts, n = 28, total (%)",19 (67.9%)
same,Hyperphosphatemia (TET),"all cohorts, n = 28, total (%)",Total: 1 (3.6%)
same,Hypertension (TET),"all cohorts, n = 28, total (%)",Total: 3(10.7%)
same,"Hypokalemia (AE, not ITPP-related)","all cohorts, n = 28, total (%)",Total: 2 (7.1%)
same,Hypomagnesemia (TET),"all cohorts, n = 28, total (%)",Total: 5 (17.9%)
same,"Hyponatremia (AE, not ITPP-related)","all cohorts, n = 28, total (%)",Total: 3 (10.7%)
same,Hypophosphatemia (TET),"all cohorts, n = 28, total (%)",Total: 4 (14.3%)
same,"Icterus due to malignant obstruction (AE, not ITPP-related)","all cohorts, n = 28, total (%)",Total: 1 (3.6%)
same,"Lower gastrointestinal bleeding (AE, not ITPP-related)","all cohorts, n = 28, total (%)",Total: 1 (3.6%)
same,"Nausea & vomiting due to malignant infiltration of stomach (AE, not ITPP-related)","all cohorts, n = 28, total (%)",Total: 1 (3.6%)
same,"Nausea (AE, not ITPP-related)","all cohorts, n = 28, total (%)",Total: 1 (3.6%)
same,"Neutropenia (AE, not ITPP-related)","all cohorts, n = 28, total (%)",Total: 1 (3.6%)
same,"Palpitations (AE, not ITPP-related)","all cohorts, n = 28, total (%)",Total: 1 (3.6%)
same,"Pyrexia (AE, not ITPP-related)","all cohorts, n = 28, total (%)",Total: 2 (7.1%)
same,"Upper respiratory tract infection (AE, not ITPP-related)","all cohorts, n = 28, total (%)",Total: 3 (10.7%)
same,"Hyperphosphatemia, patients","asymptomatic, grade I",One
same,"AV Block 1° (AE, not ITPP-related)","cohort 1, 1866 mg/m^2",0
same,"Acute kidney injury grade 3 (AE, not ITPP-related)","cohort 1, 1866 mg/m^2",0
same,"C. difficile enteritis (AE, not ITPP-related)","cohort 1, 1866 mg/m^2",0
same,"Cholestasis (AE, not ITPP-related)","cohort 1, 1866 mg/m^2",0
same,"Fatigue (AE, not ITPP-related)","cohort 1, 1866 mg/m^2",0
same,Hypercalcemia (TET),"cohort 1, 1866 mg/m^2",0
same,Hyperphosphatemia (TET),"cohort 1, 1866 mg/m^2",0
same,Hypertension (TET),"cohort 1, 1866 mg/m^2",0
same,"Hypokalemia (AE, not ITPP-related)","cohort 1, 1866 mg/m^2",0
same,Hypomagnesemia (TET),"cohort 1, 1866 mg/m^2",0
same,"Hyponatremia (AE, not ITPP-related)","cohort 1, 1866 mg/m^2",0
same,Hypophosphatemia (TET),"cohort 1, 1866 mg/m^2",0
same,"Icterus due to malignant obstruction (AE, not ITPP-related)","cohort 1, 1866 mg/m^2",0
same,"Nausea & vomiting due to malignant infiltration of stomach (AE, not ITPP-related)","cohort 1, 1866 mg/m^2",0
same,"Nausea (AE, not ITPP-related)","cohort 1, 1866 mg/m^2",0
same,"Neutropenia (AE, not ITPP-related)","cohort 1, 1866 mg/m^2",0
same,"Palpitations (AE, not ITPP-related)","cohort 1, 1866 mg/m^2",0
same,"Upper respiratory tract infection (AE, not ITPP-related)","cohort 1, 1866 mg/m^2",0
same,"Pyrexia, CTCAE-Grade","cohort 1, AE, relationship to IMP: Unrelated",1
same,"Ascites & death due to rapid progression of malignancy, CTCAE-Grade",[1],5
same,"Lower gastrointestinal bleeding, CTCAE-Grade",[1],2
same,"AV Block 1° (AE, not ITPP-related)","cohort 2, 3732 mg/m^2",0
same,"Acute kidney injury grade 3 (AE, not ITPP-related)","cohort 2, 3732 mg/m^2",0
same,"Ascites due to oncological progress (AE, not ITPP-related)","cohort 2, 3732 mg/m^2",0
same,"C. difficile enteritis (AE, not ITPP-related)","cohort 2, 3732 mg/m^2",0
same,"Cholestasis (AE, not ITPP-related)","cohort 2, 3732 mg/m^2",0
same,"Fatigue (AE, not ITPP-related)","cohort 2, 3732 mg/m^2",0
same,Hyperphosphatemia (TET),"cohort 2, 3732 mg/m^2",0
same,Hypertension (TET),"cohort 2, 3732 mg/m^2",0
same,"Hypokalemia (AE, not ITPP-related)","cohort 2, 3732 mg/m^2",0
same,"Hyponatremia (AE, not ITPP-related)","cohort 2, 3732 mg/m^2",0
same,Hypophosphatemia (TET),"cohort 2, 3732 mg/m^2",0
same,"Icterus due to malignant obstruction (AE, not ITPP-related)","cohort 2, 3732 mg/m^2",0
same,"Lower gastrointestinal bleeding (AE, not ITPP-related)","cohort 2, 3732 mg/m^2",0
same,"Nausea (AE, not ITPP-related)","cohort 2, 3732 mg/m^2",0
same,"Neutropenia (AE, not ITPP-related)","cohort 2, 3732 mg/m^2",0
same,"Palpitations (AE, not ITPP-related)","cohort 2, 3732 mg/m^2",0
same,"Pyrexia (AE, not ITPP-related)","cohort 2, 3732 mg/m^2",0
same,"Upper respiratory tract infection (AE, not ITPP-related)","cohort 2, 3732 mg/m^2",0
same,"Hypercalcemia, CTCAE-Grade","cohort 2, AE",1
same,"Hypomagnesemia, CTCAE-Grade","cohort 2, AE, relationship to IMP: Probably",1
same,"Nausea & Vomiting necessitating hospitalisation, CTCAE-Grade","cohort 2, SAE, relationship to IMP: Unrelated",2
same,"AV Block 1° (AE, not ITPP-related)","cohort 3, 5600 mg/m^2",0
same,"Acute kidney injury grade 3 (AE, not ITPP-related)","cohort 3, 5600 mg/m^2",0
same,"Ascites due to oncological progress (AE, not ITPP-related)","cohort 3, 5600 mg/m^2",0
same,"Fatigue (AE, not ITPP-related)","cohort 3, 5600 mg/m^2",0
same,Hyperphosphatemia (TET),"cohort 3, 5600 mg/m^2",0
same,Hypertension (TET),"cohort 3, 5600 mg/m^2",0
same,"Hypokalemia (AE, not ITPP-related)","cohort 3, 5600 mg/m^2",0
same,Hypomagnesemia (TET),"cohort 3, 5600 mg/m^2",0
same,"Hyponatremia (AE, not ITPP-related)","cohort 3, 5600 mg/m^2",0
same,"Icterus due to malignant obstruction (AE, not ITPP-related)","cohort 3, 5600 mg/m^2",0
same,"Lower gastrointestinal bleeding (AE, not ITPP-related)","cohort 3, 5600 mg/m^2",0
same,"Nausea & vomiting due to malignant infiltration of stomach (AE, not ITPP-related)","cohort 3, 5600 mg/m^2",0
same,"Nausea (AE, not ITPP-related)","cohort 3, 5600 mg/m^2",0
same,"Neutropenia (AE, not ITPP-related)","cohort 3, 5600 mg/m^2",0
same,"Pyrexia (AE, not ITPP-related)","cohort 3, 5600 mg/m^2",0
same,"Upper respiratory tract infection (AE, not ITPP-related)","cohort 3, 5600 mg/m^2",0
same,"Hypercalcemia, CTCAE-Grade","cohort 3, AE",1
same,"Hypophosphatemia, CTCAE-Grade","cohort 3, AE, relationship to IMP: Probably",1
same,"Palpations, CTCAE-Grade","cohort 3, AE, relationship to IMP: Unrelated",1
same,"Cholestasis, CTCAE-Grade","cohort 3, SAE, relationship to IMP: Unlikely",1
same,"C. difficile enteritis, CTCAE-Grade","cohort 3, SAE, relationship to IMP: Unrelated",3
same,"AV Block 1° (AE, not ITPP-related)","cohort 4, 7000 mg/m^2",0
same,"C. difficile enteritis (AE, not ITPP-related)","cohort 4, 7000 mg/m^2",0
same,"Cholestasis (AE, not ITPP-related)","cohort 4, 7000 mg/m^2",0
same,Hyperphosphatemia (TET),"cohort 4, 7000 mg/m^2",0
same,"Hypokalemia (AE, not ITPP-related)","cohort 4, 7000 mg/m^2",0
same,Hypomagnesemia (TET),"cohort 4, 7000 mg/m^2",0
same,"Hyponatremia (AE, not ITPP-related)","cohort 4, 7000 mg/m^2",0
